Laboratory results taken from US20180296537A1, “METHODS AND COMPOSITIONS FOR DIAGNOSING, TREATING, AND MONITORING TREATMENT OF SHANK3 DEFICIENCY ASSOCIATED DISORDERS” (Novartis AG, priority 2015, published 2018).
Where a SMILES comes first, the peptide text is derived from it. The star is where a group is joined. Cbz = O=C(OCc1ccccc1)*

How the values were obtained:
PMDS patients = details: pilot studies; cited from earlier work
Akt = test: Western blot of Akt phosphorylation in rat primary cortical neurons (Shank3 knock down vs control); type: cell-based; details: DIV 16
Excerpt: E18 primary rat cortical neurons were dissected, cultured and infected 6 days after plating (DIV6) with indicated lentiviruses at MOI 10, as previously described (Proenca et al., 2013). Lentiviruses were produced by calcium phosphate transfection of HEK293T cells with packaging plasmids (Life Technologies) and transfer plasmid in 10 cm dishes. Cells were transferred to fresh medium 6 hrs. post-transfection. Four days post-transfection, the cell medium was collected and pooled from several dishes, cleared of cellular debris by 0.45 μm filtration, and concentrated 100× by centrifugation at 19,000 g for 90 min in a Beckman Ultracentrifuge using a SW28/SW32 rotor. Pellets were suspended in PBS/0.5% BSA and viral titer was determined by ELISA quantification of viral p24 antigen (Zeptometrix Corp, USA). For shRNA plasmid generation, oligonucleotides were annealed and ligated into lentiviral transfer plasmid pLKO.1-GFP vector at the AgeI/EcoRI sites. The target sequences of shRNAs that target rat and mouse Shank3 (5′-3′) are: […] […] (SEQ ID NO: 2), and […] (SEQ ID NO: 3). The latter was previously reported (Verpelli et al., 2011). A luciferase-targeting sequence was used as an shRNA control: […] (SEQ ID NO: 4).
For immunoprecipitation (IP) of HA-tagged Akt, neurons were lysed in IP buffer (20 mM Tris-HCl pH 7.4, 3 mM EDTA, 3 mM EGTA, 150 mM NaCl, 0.5% NP-40, and protease/phosphatase inhibitor cocktails (Roche)). Lysates were cleared by centrifugation at 13,000 rpm for 10 min and lysates normalized for protein abundance were immunoprecipitated with rabbit HA-tag antibody for 1 h at 4° C. Immuno-complexes were then captured by incubation for an additional 1 hr with Protein A agarose beads (Roche). Beads were washed three times with IP buffer and bound proteins were eluted with 2×SDS-PAGE sample buffer, then boiled for 5 min. For IP and analysis of ubiquitinated Myc-Clk2, neurons were lysed in Ubiquitin IP buffer (20 mM Tris-HCl pH 7.4, 3 mM EDTA, 3 mM EGTA, 150 mM NaCl, 1% Triton X-100, protease/phosphatase inhibitor cocktails (Roche), 5 mM N-ethylmaleimide, and 3 mM iodoacetamide) containing 1% SDS. Lysates were boiled for 20 min to denature proteins and then centrifuged for 10 min at 13,000 rpm. Lysates were subsequently diluted to 0.1% SDS with Ubiquitin IP buffer and immunoprecipitated with Myc antibody for 1 h. Complexes were then captured by addition of Protein G agarose (Roche) and additional 1 h incubation. Beads were washed 3× and eluted with 2×SDS-PAGE sample buffer, then boiled for 5 min. Samples prepared for SDS-PAGE were then resolved on 4-12% Novex gels (Life Technologies), transferred to PVDF membranes, blocked in 5% low-fat milk in TBS/0.1% Tween-20, and incubated overnight with primary antibodies. After washing and 1 h incubation with secondary antibodies, proteins were visualized by Chemiluminescent detection (Amersham-GE Healthcare Life Sciences).
To determine whether Shank3 deficiency impacts the PI3K-Akt-mTOR signaling pathway (FIG. 1A, gray highlight), lentiviral-mediated delivery of shRNAs was used to knock-down Shank3 in rat primary cortical neuron cultures. Cultured rat primary cortical neurons were transduced with lentiviruses encoding control shRNA or Shank3-shRNA at six days in vitro (DIV 6) and treated with BDNF (50 ng/ml) for 15 or 30 min at 14-16 days in vitro (DIV 14-16). Cell lysates were prepared in RIPA buffer prior to resolution by SDS-PAGE and Western blotting.
Cortical neurons, transduced with shRNA-expressing lentiviruses on DIV 6, were treated with 50 ng/ml BDNF or okadaic acid (100 nM) on DIV 16 and cell lysates were resolved by SDS-PAGE, followed by Western blotting.

CA1 pyramidal neurons = test: Dendritic spine density in hippocampal organotypic slice cultures; type: cell-based, mouse
Protocol: Wilde type (C57B1/6) mice were housed in a temperature-controlled room and maintained on a 12 hr light/dark cycle. Food and water were available ad libitum and experiments were carried out in accordance with the local authorization guidelines for the care and use of laboratory animals. Slice cultures were established according to the procedure described by Stoppini and colleagues (Galimberti et al., 2006; Stoppini et al., 1991). […] For organotypic slice cultures, brains of P6-P9 transgenic mice were dissected in cold MEM (GIBCO) medium, and hippocampal coronal sections of 400 μm were obtained with a tissue chopper (McIlwain). Slices were selected, placed on Millicell (Millipore, PICM03050) and cultured in 6-well dishes at 35° C. and 5% CO2 in the presence of 1 ml of medium. The entire slice isolation procedure took about 30 min. The culture medium was exchanged every third day. Treatments were performed in fresh culture medium for the indicated time periods.
Brain slices were transfected with plasmids encoding shCont, and shShank3 using helios gene gun system (Bio-Rad Laboratories, #165-2431) as previously described (Proenca et al., 2013). Subsequently, slices were fixed, stained, mounted, and analyzed following the protocols described below in the immunohistochemistry and microscopy paragraphs.
Slices were fixed for 10 minutes in 4% PFA, washed in PBS and blocked for 4 hr at room temperature in 0.3% Triton X-100 20% Horse Serum/PBS (blocking solution). GFP primary antibody was incubated for 24 hr at 4° C. in the blocking solution. Afterwards, slices were washed in PBS, incubated for 2 hr in 0.3% Triton X-100/PBS with Alexa Fluor® 488 Donkey anti-chicken secondary antibody (Life technologies). Finally, slices were washed in PBS, incubated 10 minutes with DAPI (Life technologies) and mounted on glass slides using ProLong mountant (Life technologies).
High resolution images were acquired on an upright Zeiss LSM700 confocal microscope, using a Plan-Neofluar 100×/1.3 oil immersion objective. For the analysis of dendritic spine density, confocal 3D stacks were acquired in CA1 region for each experiment. To quantify spine density, a stretch of approximately 30 μm was selected on secondary dendrites originating at the branch point from the primary dendrite. Only secondary dendrites were considered to reduce variability. Dendritic length was measured using the ImageJ plugin, Simple Neurite tracer, and spine density manually counted using the Cell Counter plugin.
The above findings implicate CLK2 overexpression as a specific anomaly that is causative for attenuated Akt activity in neurons deficient for Shank3. Consequently, inhibiting CLK2 activity or directly activating Akt would restore neuronal impairments associated with Shank3 loss of function. First, a small-molecule Akt-activator, SC79, was tested for its ability to restore Akt phosphorylation (FIG. 5A). SC79 binds directly to Akt to facilitate an ‘open’ conformation of the protein that is accessible to upstream activating kinases (eg. PDK1). This obviates the need for PtdIns(3,4,5)P3 (PIP3) production and recruitment of Akt to the plasma membrane (Rodgers, Cell Metab. 11, 23-34, 2010). […] Decreased principal neuron dendritic spine density has frequently been observed in Shank3 loss of function models (Durand et al., 2007, Nature Genetics 39: 25-27; Peca et al., 2011, Nature 472: 437-442; Verpelli et al., 2011, The Journal of Biological Chemistry 286: 34839-34850). Knock-down of Shank3 in hippocampal organotypic slice cultures, via biolistic transfection of shRNA vectors, faithfully recapitulated this phenotype in CA1 pyramidal neurons, whereby a two-fold reduction in apical dendrite spine density resulted (FIG. 6A). […]

CLK2 = test: Western blot of CLK2 protein expression in primary neurons; type: cell-based, rat
Excerpt: E18 primary rat cortical neurons were dissected, cultured and infected 6 days after plating (DIV6) with indicated lentiviruses at MOI 10, as previously described (Proenca et al., 2013). Lentiviruses were produced by calcium phosphate transfection of HEK293T cells with packaging plasmids (Life Technologies) and transfer plasmid in 10 cm dishes. Cells were transferred to fresh medium 6 hrs. post-transfection. Four days post-transfection, the cell medium was collected and pooled from several dishes, cleared of cellular debris by 0.45 μm filtration, and concentrated 100× by centrifugation at 19,000 g for 90 min in a Beckman Ultracentrifuge using a SW28/SW32 rotor. Pellets were suspended in PBS/0.5% BSA and viral titer was determined by ELISA quantification of viral p24 antigen (Zeptometrix Corp, USA). For shRNA plasmid generation, oligonucleotides were annealed and ligated into lentiviral transfer plasmid pLKO.1-GFP vector at the AgeI/EcoRI sites. The target sequences of shRNAs that target rat and mouse Shank3 (5′-3′) are: […] (SEQ ID NO: 1), […] (SEQ ID NO: 2), and […] (SEQ ID NO: 3). The latter was previously reported (Verpelli et al., 2011). A luciferase-targeting sequence was used as an shRNA control: […] (SEQ ID NO: 4).
For immunoprecipitation (IP) of HA-tagged Akt, neurons were lysed in IP buffer (20 mM Tris-HCl pH 7.4, 3 mM EDTA, 3 mM EGTA, 150 mM NaCl, 0.5% NP-40, and protease/phosphatase inhibitor cocktails (Roche)). Lysates were cleared by centrifugation at 13,000 rpm for 10 min and lysates normalized for protein abundance were immunoprecipitated with rabbit HA-tag antibody for 1 h at 4° C. Immuno-complexes were then captured by incubation for an additional 1 hr with Protein A agarose beads (Roche). Beads were washed three times with IP buffer and bound proteins were eluted with 2×SDS-PAGE sample buffer, then boiled for 5 min. […]

Shank3 knock-out mice = details: cited from earlier work
PMDS neurons = details: cited from earlier work

## insulin: insulin
PMDS patients
  motor, cognitive and social impairments: beneficial

## C=C1[C@@H](O)[C@@H]2O[C@]3(CC[C@H](/C=C/[C@@H](C)[C@@H]4CC(C)=C[C@@]5(O[C@H](C[C@@](C)(O)C(=O)O)CC[C@H]5O)O4)O3)CC[C@H]2O[C@@H]1[C@@H](O)C[C@H](C)[C@H]1O[C@@]2(CCCCO2)CC[C@H]1C [okadaic acid]
Akt; okadaic acid 100 nM
  increase of Akt T308 phosphorylation in Shank3 knock down neurons versus increase in control neurons: two-fold greater
Akt; okadaic acid 100 nM, alone or with 50 ng/ml BDNF, control and Shank3 knock down neurons
  Akt T308 phosphorylation: enhanced Akt T308 phosphorylation in both control and Shank3 knock down neurons

## O=c1[nH]c2ccccc2n1C1CCN(Cc2ccc(-c3nc4cc5[nH]cnc5cc4nc3-c3ccccc3)cc2)CC1 [Akti]
CA1 pyramidal neurons; Shank3 knock down neurons, 10 μM Akti included in TG003 treatment
  effect of TG003 on spine density with Akt inhibitor: blocked
CA1 pyramidal neurons; Thy1-mGFP transfected slice cultures, 10 μM Akti 24 h, fixed DIV14
  dendritic spine density: sufficient to reduce dendritic spine density

## CC(C)C[C@@H](C=O)NC(=O)[C@H](CC(C)C)NC(=O)[C@H](CC(C)C)NC(=O)OCc1ccccc1 [MG132] (Cbz-Leu-Leu-Leu-aldehyde)
CLK2; control cells, 2.5 or 20 μM MG132, 30 minutes
  CLK2 protein level: rapid increase of CLK2 in control cells

## wild type B56β: Flag-tagged wild type B56β regulatory subunit of PP2A, expressed by lentiviral transduction
Akt; Shank3 knock down neurons, lentiviral co-expression of Flag-tagged B56β, 50 ng/ml BDNF
  Akt phosphorylation: had no effect

## IGF-1: insulin-like growth factor-1
CA1 pyramidal neurons; Shank3 knockdown neurons, 1 μg/ml IGF-1 24 h, with or without 10 μM Akti, fixed DIV 14
  dendritic spine density: restored normal dendritic spine density to Shank3 knockdown neurons, in an Akt-dependent manner
PMDS patients
  motor, cognitive and social impairments: beneficial
Shank3 knock-out mice
  synaptic and motor deficits: alleviated synaptic and motor deficits in Shank3 knock-out mice
PMDS neurons
  synaptic impairment: alleviated

B1: BDNF: brain derived neurotrophic factor (protein, UniProt P23560 19-247, looked up)
Neurotrophic factor BDNF …: APMKEANIRGQGGLAYPGVRTHGTLESVNGPKAGSRGLTSLADTFEHVIEELLDEDQKVRPNEENNKDADLYTSRVMLSSQVPLEPPLLFLLEEYKNYLDAANMSMRVRRHSDPARRGELSVCDSISEWVTAADKKTAVDMSGGTVTVLEKVPVSKGQLKQYFYETKCNPMGYTKEGCRGIDKRHWNSQCRTTQSYVRALTMDSKKRIGWRFIRIDTSCVCTLTIKRGR
CLK2; Shank3 knock down neurons, BDNF treatment
  CLK2 protein level: elicited no significant further increase of CLK2 levels
CLK2; control neurons, BDNF 30 minutes
  CLK2 protein level: induced the accumulation of CLK2 in control neurons
